Results reported in the NIST ThermoML archive (doi:10.1016/j.jct.2018.03.013).

Test: xn = mol fraction of the nth substance listed
Settings: 100 kPa, Liquid; for speed of sound: Frequency=3 MHz, Linear variable-path acoustic interferometer; for mass density: Pycnometric method

C=C(C)C(=O)OCCCC [butyl 2-methyl-2-propenoate] + CC#N
Settings	mass density, 293.15 K [kg/m3]	mass density, 298.15 K [kg/m3]	mass density, 303.15 K [kg/m3]	speed of sound, 293.15 K [m/s]	speed of sound, 298.15 K [m/s]	speed of sound, 303.15 K [m/s]
x2 = 0	895.19	890.48	885.78	1241.7	1222.1	1202.4
x2 = 0.0681	892.7	887.98	883.27	1244.4	1224.8	1205.3
x2 = 0.1359	889.93	885.2	880.47	1247.2	1227.6	1208.1
x2 = 0.1976	887.12	882.38	877.64	1249.7	1230	1210.5
x2 = 0.2728	883.27	878.51	873.75	1252.7	1232.9	1213.3
x2 = 0.3442	879.11	874.33	869.55	1255.5	1235.5	1216
x2 = 0.4143	874.45	869.65	864.84	1258.2	1238.2	1218.7
x2 = 0.4658	870.61	865.78	860.95	1260.3	1240.2	1220.7
x2 = 0.5243	865.72	860.86	856.01	1262.7	1242.5	1223.1
x2 = 0.5649	861.96	857.08	852.2	1264.5	1244.2	1224.8
x2 = 0.639	854.15	849.22	844.3	1268.1	1247.7	1228.3
x2 = 0.7112	845.09	840.11	835.14	1272.2	1251.6	1232.3
x2 = 0.7836	834.14	829.09	824.06	1277.3	1256.4	1237.2
x2 = 0.8558	820.72	815.6	810.49	1283.7	1262.6	1243.5
x2 = 0.928	803.86	798.66	793.46	1292.4	1271	1252
